One assay has as its target T1, TLR4/TRAM (Mus musculus, UniProt Q9QUK6).
T1 construct: TLR4-Cer expression vector was described earlier (1); expressed in transfected cells; host or cells: HEK293T
T1 sequence (Q9QUK6 26-835): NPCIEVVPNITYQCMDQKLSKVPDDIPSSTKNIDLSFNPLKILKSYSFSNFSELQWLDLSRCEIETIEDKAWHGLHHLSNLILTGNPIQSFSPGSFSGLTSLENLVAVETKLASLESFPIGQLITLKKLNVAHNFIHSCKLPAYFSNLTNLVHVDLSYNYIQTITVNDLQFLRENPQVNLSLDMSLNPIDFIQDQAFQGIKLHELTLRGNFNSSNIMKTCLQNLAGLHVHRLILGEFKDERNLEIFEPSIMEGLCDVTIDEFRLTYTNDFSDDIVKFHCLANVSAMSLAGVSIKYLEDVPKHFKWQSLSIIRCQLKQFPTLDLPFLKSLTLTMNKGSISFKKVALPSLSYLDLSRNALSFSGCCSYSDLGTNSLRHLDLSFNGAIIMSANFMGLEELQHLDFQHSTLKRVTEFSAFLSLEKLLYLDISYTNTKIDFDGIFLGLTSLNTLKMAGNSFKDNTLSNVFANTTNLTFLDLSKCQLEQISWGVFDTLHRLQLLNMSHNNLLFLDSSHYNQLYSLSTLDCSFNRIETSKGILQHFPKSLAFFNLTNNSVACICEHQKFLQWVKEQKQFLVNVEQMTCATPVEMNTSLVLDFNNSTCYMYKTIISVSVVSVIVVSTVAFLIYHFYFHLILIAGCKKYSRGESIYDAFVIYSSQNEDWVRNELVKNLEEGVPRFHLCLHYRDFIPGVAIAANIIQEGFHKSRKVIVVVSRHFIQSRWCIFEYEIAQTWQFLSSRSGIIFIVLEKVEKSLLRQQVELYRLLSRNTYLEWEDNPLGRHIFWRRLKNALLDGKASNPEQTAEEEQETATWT
Put plainly: TLR4/TRAM coimmunoprecipitation in transfected HEK293T cells. Type of assay: cell-based. Conditions: 20 μM peptide, 1 h. Here is the method:
(§1) FIG. 9. TM4, TM6, and TR6 block adapter recruitment to TLR4. (A) A total of 6×10^5 HEK293T cells was transfected with 1 μg pcDNA3.1-mTLR4-Cer and pEF-BOS-mTRAM-HA. Twenty-four hours posttransfection, the cells were treated with 20 μM of each peptide for 1 h. Cell lysates were immunoprecipitated with anti-GFP Ab and blotted with anti-HA-HRP. (B) A total of 2×10^6 mouse peritoneal macrophages was pretreated with 20 μM of each peptide for 30 min prior to stimulation with 100 ng/ml LPS. Cell extracts were obtained 30 min after LPS treatment, immunoprecipitated with goat anti-TLR4 Ab, and blotted with rabbit anti-MyD88 or anti-TLR4 Ab. Data are representative of three independent experiments.
(§2) HEK293T cells were transfected with indicated plasmids using Superfect Transfection Reagent (Qiagen). […] Protein was quantified using Bio-Rad protein quantification kit. Equal amount of protein was loaded and analyzed by 10% SDS-PAGE and immunoblotting. The cell extracts containing equal amount of protein were incubated with 1 μg Ab for 2 h, followed by 4-h incubation with 25 μl protein G agarose beads (Roche); the beads were then washed four times with lysis buffer, boiled in […] sample loading buffer, and analyzed by immunoblotting. […]

A further assay concerns TLR4/MyD88. The assay can be described thus: LPS-induced TLR4/MyD88 coimmunoprecipitation in mouse peritoneal macrophages. Particulars: 20 μM peptide 30 min before LPS 100 ng/ml. Type of assay: cell-based. The protocol: as §1, §2

Experimental findings from patent publication US20130203649A1, “INHIBITORS OF TLR SIGNALING BY TARGETING TIR DOMAIN INTERFACES” (UNIVERSITY OF MARYLAND, BALTIMORE, priority 2012, published 2013) are described below.

No end group written: not given here.

RQIKIWFQNRRMKWKKPGFLRDPWCKYQML [TR6]: the TLR4/TRAM coimmunoprecipitation entry on TLR4/TRAM was “inhibited TLR4/TRAM association, although less efficiently than TM6”. In addition, in the assay on TLR4/MyD88, the “LPS-induced TLR4/MyD88 association” value is recorded as “efficiently prevented”.
